Source: patent EP0559845B1, “Use of compounds in preventing endotoxin shock” (priority 1991, dated 1992)
“Also recorded” adds a separate entry of the source. Like-named read-outs stand apart in the source and are kept apart here.

Legend:
Type in all cases: biochemical
[1] = test system: LPS-induced GTPase activity in membranes isolated from RAW 264.7 cells; experiment: GTPase assay: effect of compounds on LPS-stimulated GTPase activity in macrophage membranes (release of 32Pi from γ-32P-GTP); conditions: for sensitivity of LPS-stimulated GTPase activity to inhibitor: high concentrations of inhibitor, 0.1 mM ATP and 0.2 mM AMPPNP; for relative abilities of purines to stimulate LPS-enhanced GTPase: dose-response studies, rank order
Excerpt: (§1) We sought to directly evaluate the influence of LPS on possible G-protein function by examining agonist-enhanced GTPase activity, which is a hallmark of G-protein action. Moreover, because macrophages are one of the key cell types in the release of toxic mediators following an LPS challenge, we first assessed the capacity of LPS to influence GTPase activity in membranes isolated from RAW 264.7 cells, which is a highly LPS-responsive macrophage cell line. In these studies, GTPase activity was measured using a standard assay. The activity was determined using 2 µM γ-^32P-GTP in the presence of 0.1 mM ATP and 0.2 mM of the non-hydrolyzable ATP analog, AMPPNP, in order to minimize nonspecific nucleotidase activity in the membrane preparations.
The reaction is initiated by the addition of the γ-^32P-GTP and the mixture incubated at 30-37°C for 15 to 30 minutes. The reaction is terminated by the addition of 500µl of 5% trichloroacetic acid and 500µl of 0.1gm/ml acid-activated charcoal in 5% trichloroacetic acid. The samples are centrifuged at 14,000xg for 10 minutes, and a 550µl aliquot of the supernatant is removed for scintillation counting. The supernatant will contain the released ^32Pi. The extent of GTPase inhibition is measured by the decrease in the amount of ^32Pi released from γ-^32P-GTP. Appropriate controls include mixtures with one of the following omitted: (i) test compound, (ii) endotoxin, and (iii) ATP, ADP or AMPPNP.
The membranes are resuspended in 20 mM HEPES (pH 7.4), 1 mM dithiothreitol, 1 mM EDTA and 10 µg leupeptin/ml. Aliquots are stored at -70°C until assayed.

[2] = test system: GTPase activity in membranes isolated from a macrophage (RAW 264.7) cell line; experiment: GTPase assay: basal or agonist-stimulated GTPase activity in macrophage membranes
Excerpt: as §1, with “preparations. In the preferred practice of the present invention, the ability of a candidate compound to inhibit LPS-induced GTPase is assessed by measuring the release of ^32Pi from γ-^32P-GTP.” for “preparations.”
(§2) We first determined the optimal LPS concentration for GTPase stimulation. In all experiments, the LPS dose response curve was quite steep, and with the highest activity occurring around 200-300 µg LPS/ml.
(§3) Under these conditions, GTPase activation was evident at 100 µg LPS/ml (roughly 6 µM assuming an average MW ∼ 17,000 kDa), and the maximal effect was seen by 300 µg/ml LPS. (2) To show adenosine mucleotide synergism with LPS-stimulated GTPase activity, either 10µM ATP or 30µM ADP replace the 0.1 mM ATP and 0.2 mM AMPPNP of the standard assay described by Cassel et al. and Neer et al.
(§4) In the preferred assay, a candidate compound (.001 - 1000 µM) is dissolved or suspended in 100µl of a reaction buffer containing 20mM HEPES (pH 7.4), 0.01mM ATP or ADP, membranes isolated from RAW 264.7 cells, 2µM γ-^32P-GTP (3-9 X 10cpm/pmol), 5mM MgCl2, 18µM LPS (based on an estimated MW of 17,000 kDa for E. coli 0111:B4 endotoxin), and 250 mM ammonium sulfate. The reaction is initiated by the addition of the γ-^32P-GTP and the mixture incubated at 30-37°C for 15 to 30 minutes. The reaction is terminated by the addition of 500µl of 5% trichloroacetic acid and 500µl of 0.1gm/ml acid-activated charcoal in 5% trichloroacetic acid. The samples are centrifuged at 14,000xg for 10 minutes, and a 550µl aliquot of the supernatant is removed for scintillation counting. The supernatant will contain the released ^32Pi. The extent of GTPase inhibition is measured by the decrease in the amount of ^32Pi released from γ-^32P-GTP. Appropriate controls include mixtures with one of the following omitted: (i) test compound, (ii) endotoxin, and (iii) ATP, ADP or AMPPNP.
(§5) The macrophage-like cell line RAW 264.7 is cultured as described using RPMI 1640 medium supplemented with 10% fetal calf serum (FCS) containing < 0.1 ng/ml LPS. The membranes are resuspended in 20 mM HEPES (pH 7.4), 1 mM dithiothreitol, 1 mM EDTA and 10 µg leupeptin/ml. Aliquots are stored at -70°C until assayed.
(§6) To assess whether the LPS/ATP-enhanced GTPase is a "low Km" form, which would be expected for a variety of large and small MW G-proteins, as well as for various GAP and ARF-like proteins, as opposed to a "high Km" form, such as a phosphatase, we assayed the GTPase activity using 0.2 and 50 µM GTP essentially as described previously. […] The LPS and ATP stimulated a low Km GTPase activity by ∼30% and 70%, respectively, when added individually. This stimulation of low Km activity was slightly greater than that estimated using the standard assay conditions. […] The LPS stimulation of GTPase activity is enhanced by adenine nucleotides.

[3] = test system: LPS-induced GTPase activity in membranes isolated from RAW 264.7 cells; experiment: GTPase assay (release of 32Pi from γ-32P-GTP), LPS-stimulated activity; conditions: for LPS-stimulated GTPase activity when adenine nucleotide included in the incubation: compared with no added adenine nucleotides
Excerpt: as §1, with “preparations. In the preferred practice of the present invention, the ability of a candidate compound to inhibit LPS-induced GTPase is assessed by measuring the release of ^32Pi from γ-^32P-GTP.” for “preparations.”
as §3, §4, §5

[4] = test system: GTPase activity in membranes isolated from a macrophage (RAW 264.7) cell line; experiment: GTPase assay, basal activity and single agonists
Excerpt: as §1, with “preparations. In the preferred practice of the present invention, the ability of a candidate compound to inhibit LPS-induced GTPase is assessed by measuring the release of ^32Pi from γ-^32P-GTP.” for “preparations.”
as §2, §3
Because the above inhibitor studies indicated a maximum LPS-stimulated GTPase activity in the presence of ATP and ATP analogs, we investigated this interaction by measuring the ATP-dependence of the GTPase activity in macrophage membranes in the presence and absence of an optimal dose of LPS. […] This stimulation by ATP may be due to the action of purinergic receptors, i.e., the adenosine and ATP receptors which are well-characterized to be coupled to various G-proteins.
as §6

C[C@@H]1O[C@@H](O[C@H]2C[C@@H](O)[C@]3(CO)[C@H]4[C@H](O)C[C@]5(C)[C@@H](C6=CC(=O)OC6)CC[C@]5(O)[C@@H]4CC[C@]3(O)C2)[C@H](O)[C@H](O)[C@H]1O [ouabain]
inhibition of LPS-stimulated GTPase activity [1]: not antagonized | sensitivity of LPS-stimulated GTPase activity to inhibitor [1]: insensitivity | inhibition of LPS-stimulated GTPase activity ([1]; in the presence of ADP): did not block

phosphatidylserine [listing 1 of 2 here]
inhibition of LPS-stimulated GTPase activity [1]: nor inhibit LPS-stimulated GTPase activity | effect on basal GTPase activity ([2]; no LPS): did not stimulate basal GTPase activity

Nc1ncnc2c1ncn2[C@@H]1O[C@H](COP(=O)(O)OP(=O)(O)O)[C@@H](O)[C@H]1O [ADP]
stimulation (potentiation) of LPS-stimulated GTPase activity [1]: potentiated; also recorded: pronounced increase in LPS-stimulated GTPase activity | relative abilities of purines to stimulate LPS-enhanced GTPase [1]: ATP> ATPγS> ADP> AMPPNP>> β,γ methylene ATP> 2-MeSATP | LPS-stimulated GTPase activity when adenine nucleotide included in the incubation [3]: pronounced increase

CC(C)Cn1c(=O)n(C)c(=O)c2[nH]cnc21 [IBMX]
inhibition of LPS-stimulated GTPase activity [1]: did not alter the LPS activation of the GTPase | stimulation of LPS-enhanced GTPase activity ([1]; at 100 µM): did not synergistically increase | effect on the LPS activation of the GTPase ([3]; P1 purinoreceptor antagonist): did not alter

O=[N+]([O-])c1ccc(OP(=O)(O)O)cc1 [p-nitrophenyl-phosphate]
inhibition of LPS-stimulated GTPase activity [1]: not antagonized | sensitivity of LPS-stimulated GTPase activity to inhibitor [1]: insensitivity

Nc1ncnc2c1ncn2[C@@H]1O[C@H](COP(=O)(O)OP(=O)(O)OP(O)(O)=S)[C@@H](O)[C@H]1O [ATPγS]
relative abilities of purines to stimulate LPS-enhanced GTPase [1]: ATP> ATPγS> ADP> AMPPNP>> β,γ methylene ATP> 2-MeSATP

O=c1ccn([C@@H]2O[C@H](COP(=O)(O)OP(=O)(O)OP(=O)(O)O)[C@@H](O)[C@H]2O)c(=O)[nH]1 [UTP]
stimulation of LPS-enhanced GTPase activity ([1]; at 100 µM): did not synergistically increase

Nc1ncnc2c1ncn2[C@@H]1O[C@H](COP(=O)(O)O)[C@@H](O)[C@H]1O [AMP]
stimulation of LPS-enhanced GTPase activity ([1]; at 100 µM): ineffective; also recorded: did not synergistically increase

CCN1C(=O)C=CC1=O [N-ethyl-maleimide]
inhibition of LPS-stimulated GTPase activity [1]: not antagonized | inhibition of LPS-stimulated GTPase activity ([1]; in the presence of ADP): did not block

[Na+].[Na+].[Na+].[O]=[V]([O-])([O-])[O-] [sodium orthovanadate]
inhibition of LPS-stimulated GTPase activity [1]: did block LPS activation

Triton X-100
inhibition of LPS-stimulated GTPase activity [1]: did not substantially interfere | effect on basal GTPase activity ([2]; no LPS): did reduce basal GTPase activity

Nc1ncnc2c1ncn2[C@@H]1O[C@H](COP(=O)(O)OP(=O)(O)NP(=O)(O)O)[C@@H](O)[C@H]1O [AMPPNP]
stimulation (potentiation) of LPS-stimulated GTPase activity [1]: pronounced increase in LPS-stimulated GTPase activity | relative abilities of purines to stimulate LPS-enhanced GTPase [1]: ATP> ATPγS> ADP> AMPPNP>> β,γ methylene ATP> 2-MeSATP | LPS-stimulated GTPase activity when adenine nucleotide included in the incubation [3]: pronounced increase

phosphatidic acid [listing 1 of 2 here]
inhibition of LPS-stimulated GTPase activity [1]: nor inhibit LPS-stimulated GTPase activity | effect on basal GTPase activity ([2]; no LPS): did not stimulate basal GTPase activity

phosphatidylcholine [listing 1 of 2 here]
effect on basal GTPase activity [4]: did not stimulate

phosphatidylcholine [listing 2 of 2 here]
inhibition of LPS-stimulated GTPase activity [1]: nor inhibit LPS-stimulated GTPase activity | effect on basal GTPase activity ([2]; no LPS): did not stimulate basal GTPase activity

Nc1ncnc2c1ncn2[C@@H]1O[C@H](COP(=O)(O)OP(=O)(O)OP(=O)(O)O)[C@@H](O)[C@H]1O [ATP]
stimulation (potentiation) of LPS-stimulated GTPase activity [1]: potentiated; also recorded: pronounced increase in LPS-stimulated GTPase activity | ATP concentration of striking synergistic stimulation of GTPase activity ([1]; ATP and LPS added together, biphasic): 1 to 10 µM | increase in activity of the GTPase ([1]; ATP in the presence of LPS): three-fold | stimulation of LPS-enhanced GTPase activity ([1]; at 1 µM): active | relative abilities of purines to stimulate LPS-enhanced GTPase [1]: ATP> ATPγS> ADP> AMPPNP>> β,γ methylene ATP> 2-MeSATP | ATP concentration of maximum stimulation of GTPase activity ([2]; ATP alone, no LPS, biphasic stimulation): 1 to 10 µM | combined effects of LPS and ATP: stimulation calculated for the low Km activity ([2]; LPS plus ATP): 228 % of basal activity | combined effects of LPS and ATP: stimulation measured using standard assay conditions ([2]; LPS plus ATP, 2 µM GTP, 0.1 mM ATP, 0.2 mM AMPPNP): 208 % of basal activity | stimulation of low Km GTPase activity ([2]; added individually, ATP 10 µM): 70% | LPS-stimulated GTPase activity when adenine nucleotide included in the incubation [3]: pronounced increase

NC(=O)c1ccc[n+]([C@@H]2O[C@H](COP(=O)([O-])OP(=O)(O)OC[C@H]3O[C@@H](n4cnc5c(N)ncnc54)[C@H](O)[C@@H]3O)[C@@H](O)[C@H]2O)c1 [NAD]
stimulation of LPS-enhanced GTPase activity ([1]; at 100 µM): did not synergistically increase

CO/C1=C\C(C)=C\[C@@H](C)[C@@H](O)[C@@H](C)C/C(C)=C/C=C/[C@H](OC)[C@@H]([C@@H](C)[C@@H](O)[C@H](C)[C@@]2(O)C[C@@H](O)[C@H](C)[C@@H](C(C)C)O2)OC1=O [bafilomycin]
inhibition of LPS-stimulated GTPase activity [1]: not antagonized | inhibition of LPS-stimulated GTPase activity ([1]; in the presence of ADP): did not block

Cn1c(=O)c2[nH]cnc2n(C)c1=O [theophylline]
stimulation of LPS-enhanced GTPase activity ([1]; at 100 µM): did not synergistically increase

phosphatidylserine [listing 2 of 2 here]
effect on basal GTPase activity [4]: did not stimulate

Nc1ncnc2c1ncn2[C@@H]1O[C@H](COP(=O)(O)OP(=O)(O)CP(=O)(O)O)[C@@H](O)[C@H]1O [β,γ methylene ATP]
relative abilities of purines to stimulate LPS-enhanced GTPase [1]: ATP> ATPγS> ADP> AMPPNP>> β,γ methylene ATP> 2-MeSATP

phosphatidic acid [listing 2 of 2 here]
effect on basal GTPase activity [4]: did not stimulate

Nc1ncnc2c1ncn2[C@@H]1O[C@H](CO)[C@@H](O)[C@H]1O [adenosine]
stimulation of LPS-enhanced GTPase activity ([1]; at 100 µM): ineffective; also recorded: did not synergistically increase
